Earlier results on two compounds are cited in US20250177316A1, “Delayed-Release Granulates of Melatonin, Combinations Comprising Melatonin, Pharmaceutical Compositions and Dietary Supplements Containing Them, and Their Use in the Treatment of Insomnia and for the Reduction of the Time Required to Fall Asleep” (S.I.I.T. S.R.L. - SERVIZIO INTERNAZIONALE IMBALLAGGI …, priority 2022, published 2025).

Regarding `CC(O)C(=O)[O-].CC(O)C(=O)[O-].[Mg+2]` (centres unmarked) [magnesium lactate], the “pH of 5% solution in water” value was 6.5-8.5.
Turning to `CC(O)C(=O)[O-].CC(O)C(=O)[O-].[Ca+2]` (centres unmarked) [calcium lactate], the “pH of 5% solution in water” value is listed as 6-8.
